Here are results for 3 compounds from patent US8399403B2, “Chemical linkers and conjugates thereof” (priority 2004, dated 2013).

Data set [1] is described as follows: Rate of cyclization of 6-membered hydrazine linker in buffer. The format is physicochemical. To be noted: incubated in buffer at pH 7.4, assessed over time. Here is the method:
A duocarmycin analog conjugated to a dimethyl 6-membered hydrazine linker was incubated in buffer at pH 7.4 for 24 hours and the generation of cyclized product resulting from cyclization of the hydrazine linker, thereby releasing free duocarmycin analog, was assessed over time.
A duocarmycin analog conjugated to a gem-dimethyl 6-membered hydrazine linker was incubated in buffer at pH 7.4 and the generation of cyclized product resulting from cyclization of the hydrazine linker, thereby releasing free duocarmycin analog, was assessed over time.

For data set [2] the following is noted: in vitro and in experimental animals; cited from earlier work.
The test system of another data set is experimental animals. To be noted: cited from earlier work.

Each structure is given as a SMILES string.

`COC(=O)c1c(C)[nH]c2c(OC(=O)N(C)CC(=O)N(C)N)cc3c(c12)[C@H](CCl)CN3C(=O)c1cc2cc(OC)ccc2o1`: the “generation of cyclized product resulting from cyclization of the hydrazine linker (release of free duocarmycin analog)” value in data set [1] is listed as “Minimal amounts of cyclized product were detected over 24 hours”.
Consider `COC(=O)c1c(C)[nH]c2c(OC(=O)N(C)C(C)(C)C(=O)N(C)N)cc3c(c12)[C@H](CCl)CN3C(=O)c1cc2cc(OC)ccc2o1`, for which the “generation of cyclized product resulting from cyclization of the hydrazine linker (release of free duocarmycin analog)” value in data set [1] is recorded as “proceeding to completion within a few minutes”.
As for `COc1c(O)c2c(c3cc(C(=O)N4CCc5c4c(O)c(OC)c4[nH]c(C(=O)N6CC7CC78C6=CC(=O)c6[nH]cc(C)c68)cc54)[nH]c13)CCN2C(N)=O` (stereo not shown) [CC-1065], the “antitumor and antimicrobial activity” value in data set [2] was “potent antitumor and antimicrobial activity”. For the same compound, the “toxicity in experimental animals” value with experimental animals is given as “causes delayed death in experimental animals”.
